Experiments:
[1] = DRUGMATRIX: Interleukin IL-1 radioligand binding (ligand: [125I] interleukin 1beta); type: cell membranes, Membrane; details: nih3t3; Not Active = under 50% inhibition at 10 µM
[2] = target: Tyrosine-protein kinase Lck (Homo sapiens, UniProt P06239); test: DRUGMATRIX: Protein Tyrosine Kinase, LCK enzyme inhibition (substrate: Poly(Glu:Tyr)); type: cell-based, Insect cells; details: insect cells; Not Active = under 50% inhibition at 10 µM
[3] = DRUGMATRIX: Glutamate, NMDA, Agonism radioligand binding (ligand: [3H] CGP-39653); type: cell membranes, Rattus norvegicus, Wistar, Cerebral cortex, Membrane; details: Not Active = under 50% inhibition at 10 µM
[4] = target: T1, Neuropeptide Y receptor type 2 (Homo sapiens, UniProt P49146); type: cell membranes, Membrane; details: kan-ts; further: in other assays of this panel Not Active means under 50% inhibition at 10 µM
T1 sequence (P49146 whole entry): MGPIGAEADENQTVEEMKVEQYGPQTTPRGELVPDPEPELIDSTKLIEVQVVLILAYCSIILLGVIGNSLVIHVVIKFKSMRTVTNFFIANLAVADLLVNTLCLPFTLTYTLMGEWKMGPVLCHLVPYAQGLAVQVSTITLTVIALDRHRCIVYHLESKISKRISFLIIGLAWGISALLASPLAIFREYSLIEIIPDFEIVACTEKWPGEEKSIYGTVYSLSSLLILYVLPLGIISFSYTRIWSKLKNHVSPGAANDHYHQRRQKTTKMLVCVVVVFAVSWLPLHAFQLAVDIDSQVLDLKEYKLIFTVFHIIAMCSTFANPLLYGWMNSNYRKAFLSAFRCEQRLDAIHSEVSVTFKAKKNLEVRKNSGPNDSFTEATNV

[5] = target: Beta-3 adrenergic receptor (Homo sapiens, UniProt P13945); test: DRUGMATRIX: Adrenergic beta3 radioligand binding (ligand: [125I] Cyanopindolol); type: cell membranes, HEK293, Membrane; details: hek293; Not Active = under 50% inhibition at 10 µM
Chain of Beta-3 adrenergic receptor (P13945 whole entry): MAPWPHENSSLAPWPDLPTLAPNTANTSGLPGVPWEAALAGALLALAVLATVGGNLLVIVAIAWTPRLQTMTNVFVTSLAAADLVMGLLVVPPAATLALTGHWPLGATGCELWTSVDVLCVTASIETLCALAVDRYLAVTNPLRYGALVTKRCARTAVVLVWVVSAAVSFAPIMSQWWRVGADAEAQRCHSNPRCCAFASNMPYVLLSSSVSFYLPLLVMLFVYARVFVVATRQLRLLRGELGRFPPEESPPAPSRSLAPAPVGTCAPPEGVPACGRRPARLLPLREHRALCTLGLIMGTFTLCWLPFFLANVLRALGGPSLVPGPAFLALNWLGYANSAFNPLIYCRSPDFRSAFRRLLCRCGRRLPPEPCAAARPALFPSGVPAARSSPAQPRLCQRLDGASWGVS

[6] = DRUGMATRIX: Glutamate, NMDA, Phencyclidine radioligand binding (ligand: [3H] TCP); type: cell membranes, Rattus norvegicus, Wistar, Cerebral cortex, Membrane; details: Not Active = under 50% inhibition at 10 µM

Chain of Tyrosine-protein kinase Lck (P06239 whole entry): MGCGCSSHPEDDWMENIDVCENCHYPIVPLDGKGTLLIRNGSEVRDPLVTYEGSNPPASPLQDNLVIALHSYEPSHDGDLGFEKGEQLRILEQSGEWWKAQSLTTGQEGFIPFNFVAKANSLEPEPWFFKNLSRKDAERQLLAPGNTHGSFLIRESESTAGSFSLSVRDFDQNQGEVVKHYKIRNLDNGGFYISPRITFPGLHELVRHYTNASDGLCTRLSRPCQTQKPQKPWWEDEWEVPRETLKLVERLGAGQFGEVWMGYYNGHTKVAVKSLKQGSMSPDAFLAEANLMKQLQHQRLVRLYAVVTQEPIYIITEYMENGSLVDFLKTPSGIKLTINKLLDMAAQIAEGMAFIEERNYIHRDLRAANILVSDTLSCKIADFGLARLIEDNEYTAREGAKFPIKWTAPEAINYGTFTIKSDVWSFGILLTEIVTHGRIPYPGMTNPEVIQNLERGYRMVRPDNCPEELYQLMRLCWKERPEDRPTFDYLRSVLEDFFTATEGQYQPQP

CN1CCC(=C2c3ccccc3CC(=O)c3sccc32)CC1 [KETOTIFEN]
Not Active: IC50 [1] | Ki [1] | IC50 [2] | IC50 [3] | Ki [3] | IC50 [4] | IC50 [5] | IC50 [6] | Ki [6]

N[C@@H](Cn1ccc(=O)c(O)c1)C(=O)O [L-MIMOSINE]
Not Active: IC50 [1] | Ki [1] | IC50 [2] | IC50 [3] | Ki [3] | IC50 [4] | IC50 [5] | IC50 [6] | Ki [6]

C[N+](C)(C)C[C@H](O)CC(=O)[O-] [LEVOCARNITINE]
Not Active: IC50 [1] | Ki [1] | IC50 [2] | IC50 [3] | Ki [3] | IC50 [4] | IC50 [5] | IC50 [6] | Ki [6]

C[C@H]1COc2c(N3CCN(C)CC3)c(F)cc3c(=O)c(C(=O)O)cn1c23.C[C@H]1COc2c(N3CCN(C)CC3)c(F)cc3c(=O)c(C(=O)O)cn1c23.O [LEVOFLOXACIN]
Not Active: IC50 [1] | Ki [1] | IC50 [2] | IC50 [3] | Ki [3] | IC50 [4] | IC50 [5] | IC50 [6] | Ki [6]

CCn1cc(C(=O)O)c(=O)c2cc(F)c(N3CCNC(C)C3)c(F)c21 (stereo not given) [LOMEFLOXACIN]
Not Active: IC50 [1] | Ki [1] | IC50 [2] | IC50 [3] | Ki [3] | IC50 [4] | IC50 [5] | IC50 [6] | Ki [6]

Cc1cccc(C)c1NC(=O)C1CCCCN1C (stereo not given) [MEPIVACAINE]
Not Active: IC50 [1] | Ki [1] | IC50 [2] | IC50 [3] | Ki [3] | IC50 [4] | IC50 [5] | IC50 [6] | Ki [6]

CN(C)C(=N)NC(=N)N [METFORMIN]
Not Active: IC50 [1] | Ki [1] | IC50 [2] | IC50 [3] | Ki [3] | IC50 [4] | IC50 [5] | IC50 [6] | Ki [6]

CC(C)(C)NCC(O)COc1cccc2c1CC(O)C(O)C2 (stereo not given) [NADOLOL]
Not Active: IC50 [1] | Ki [1] | IC50 [2] | IC50 [3] | Ki [3] | IC50 [4] | IC50 [5] | IC50 [6] | Ki [6]

C[C@]12CC[C@H]3[C@@H](CCC4=CC(=O)CC[C@@H]43)[C@@H]1CC[C@@H]2O [NANDROLONE]
Not Active: IC50 [1] | Ki [1] | IC50 [2] | IC50 [3] | Ki [3] | IC50 [4] | IC50 [5] | IC50 [6] | Ki [6]

C[C@@H]1C/C=C/C=C/C=C/C=C/[C@H](O[C@@H]2O[C@H](C)[C@@H](O)[C@H](N)[C@@H]2O)C[C@@H]2O[C@](O)(C[C@@H](O)C[C@H]3O[C@@H]3/C=C/C(=O)O1)C[C@H](O)[C@H]2C(=O)O [NATAMYCIN]
Not Active: IC50 [1] | Ki [1] | IC50 [2] | IC50 [3] | Ki [3] | IC50 [4] | IC50 [5] | IC50 [6] | Ki [6]

CN(C)C(=O)Oc1cccc([N+](C)(C)C)c1.[Br-] [NEOSTIGMINE BROMIDE]
Not Active: IC50 [1] | Ki [1] | IC50 [2] | IC50 [3] | Ki [3] | IC50 [4] | IC50 [5] | IC50 [6] | Ki [6]

NC(=O)c1cccnc1 [NIACINAMIDE]
Not Active: IC50 [1] | Ki [1] | IC50 [2] | IC50 [3] | Ki [3] | IC50 [4] | IC50 [5] | IC50 [6] | Ki [6]

CS(=O)(=O)Nc1ccc([N+](=O)[O-])cc1Oc1ccccc1 [NIMESULIDE]
Not Active: IC50 [1] | Ki [1] | IC50 [2] | IC50 [3] | Ki [3] | IC50 [4] | IC50 [5] | IC50 [6] | Ki [6]

CN1C(=O)CN=C(c2ccccc2)c2cc([N+](=O)[O-])ccc21 [NIMETAZEPAM]
Not Active: IC50 [1] | Ki [1] | IC50 [2] | IC50 [3] | Ki [3] | IC50 [4] | IC50 [5] | IC50 [6] | Ki [6]

COc1ccc2c(c1OC)C(=O)O[C@@H]2[C@H]1c2c(cc3c(c2OC)OCO3)CCN1C [NOSCAPINE]
Not Active: IC50 [1] | Ki [1] | IC50 [2] | IC50 [3] | Ki [3] | IC50 [4] | IC50 [5] | IC50 [6] | Ki [6]

C[C@@H]1O[C@@H](O[C@H]2C[C@@H](O)[C@]3(CO)[C@H]4[C@H](O)C[C@]5(C)[C@@H](C6=CC(=O)OC6)CC[C@]5(O)[C@@H]4CC[C@]3(O)C2)[C@H](O)[C@H](O)[C@H]1O [OUABAIN]
Not Active: IC50 [1] | Ki [1] | IC50 [2] | IC50 [3] | Ki [3] | IC50 [4] | IC50 [5] | IC50 [6] | Ki [6]

NC(=O)N1c2ccccc2CC(=O)c2ccccc21 [OXCARBAZEPINE]
Not Active: IC50 [1] | Ki [1] | IC50 [2] | IC50 [3] | Ki [3] | IC50 [4] | IC50 [5] | IC50 [6] | Ki [6]

COc1ccnc(C[S+]([O-])c2nc3ccc(OC(F)F)cc3[nH]2)c1OC (stereo not given) [PANTOPRAZOLE]
Not Active: IC50 [1] | Ki [1] | IC50 [2] | IC50 [3] | Ki [3] | IC50 [4] | IC50 [5] | IC50 [6] | Ki [6]

N=C(N)c1ccc(OCCCCCOc2ccc(C(=N)N)cc2)cc1 [PENTAMIDINE]
Not Active: IC50 [1] | Ki [1] | IC50 [2] | IC50 [3] | Ki [3] | IC50 [4] | IC50 [5] | IC50 [6] | Ki [6]

NNCCc1ccccc1 [PHENELZINE]
Not Active: IC50 [1] | Ki [1] | IC50 [2] | IC50 [3] | Ki [3] | IC50 [4] | IC50 [5] | IC50 [6] | Ki [6]

CCc1ccc(CCOc2ccc(CC3SC(=O)NC3=O)cc2)nc1 (stereo not given) [PIOGLITAZONE]
Not Active: IC50 [1] | Ki [1] | IC50 [2] | IC50 [3] | Ki [3] | IC50 [4] | IC50 [5] | IC50 [6] | Ki [6]

CCCNC(C)C(=O)Nc1ccccc1C (stereo not given) [PRILOCAINE]
Not Active: IC50 [1] | Ki [1] | IC50 [2] | IC50 [3] | Ki [3] | IC50 [4] | IC50 [5] | IC50 [6] | Ki [6]

CCN(CC)CCNC(=O)c1ccc(N)cc1 [PROCAINAMIDE]
Not Active: IC50 [1] | Ki [1] | IC50 [2] | IC50 [3] | Ki [3] | IC50 [4] | IC50 [5] | IC50 [6] | Ki [6]

CCN(CC)CCCC(C)Nc1c2ccc(Cl)cc2nc2ccc(OC)cc12 (stereo not given) [QUINACRINE]
Not Active: IC50 [1] | Ki [1] | IC50 [2] | IC50 [3] | Ki [3] | IC50 [4] | IC50 [5] | IC50 [6] | Ki [6]

C[C@]12C=CC(=O)C=C1CC[C@H]1[C@@H]3C[C@@H](O)[C@](O)(C(=O)CO)[C@@]3(C)C[C@H](O)[C@@]12F [TRIAMCINOLONE]
Not Active: IC50 [1] | Ki [1] | IC50 [2] | IC50 [3] | Ki [3] | IC50 [4] | IC50 [5] | IC50 [6] | Ki [6]

CC[C@]1(O)C[C@@H]2CN(CCc3c([nH]c4ccccc34)[C@@](C(=O)OC)(c3cc4c(cc3OC)N(C)[C@H]3[C@@](O)(C(N)=O)[C@H](O)[C@]5(CC)C=CCN6CC[C@]43[C@@H]65)C2)C1 [VINDESINE]
Not Active: IC50 [1] | Ki [1] | IC50 [2] | IC50 [3] | Ki [3] | IC50 [4] | IC50 [5] | IC50 [6] | Ki [6]

CCN(C(C)=O)c1cccc(-c2ccnc3c(C#N)cnn23)c1 [ZALEPLON]
Not Active: IC50 [1] | Ki [1] | IC50 [2] | IC50 [3] | Ki [3] | IC50 [4] | IC50 [5] | IC50 [6] | Ki [6]

COBALTOUS CHLORIDE
Not Active: IC50 [1] | Ki [1] | IC50 [2] | Ki [2] | IC50 [3] | Ki [3] | IC50 [4] | Ki [4] | IC50 [5] | Ki [5] | IC50 [6] | Ki [6]
